{"source": "ChEMBL document CHEMBL4342450", "about": "“Antitumor Activity of Ohmyungsamycin A through the Regulation of the Skp2-p27 Axis and MCM4 in Human Colorectal Cancer Cells” (J Nat Prod, 2020)", "key": {"[1]": {"test_system": "Mus musculus", "experiment": "In vivo modulation of MCM4 in tumor of BALB/c nude mouse xenografted with human HCT116 cells assessed as downregulation of MCM4 mRNA level at 5 to 10 m/kg, ip administered thrice a week for 3.5 weeks by RT-PCR method", "format": "functional, organism-based"}, "[2]": {"test_system": "HCT-116", "experiment": "Downregulation of MCM4 gene expression in human HCT116 cells assessed as fold change at 15 uM incubated for 24 hrs by cDNA microarray analysis relative to control", "format": "functional"}, "[3]": {"test_system": "HCT-116", "experiment": "Effect on Skp1 expression in human HCT116 cells at 5 to 20 uM after 24 hrs by Western blot analysis", "format": "functional, cell-based"}, "[4]": {"test_system": "HCT-116", "experiment": "Downregulation of MCM4 mRNA expression in human HCT116 cells after 12 hrs by RT-PCR method", "format": "functional, cell-based"}, "[5]": {"test_system": "HCT-116", "experiment": "Induction of cell cycle arrest in human HCT116 cells assessed as accumulation at G0/G1 phase at 20 uM incubated for 24 hrs by propidium iodide staining based flow cytometry (reference value: 54.7%)", "format": "functional"}, "[6]": {"test_system": "HCT-116", "experiment": "Downregulation of PEG10 gene expression in human HCT116 cells assessed as fold change at 15 uM incubated for 24 hrs by cDNA microarray analysis relative to control", "format": "functional"}, "[7]": {"test_system": "Mus musculus", "experiment": "In vivo modulation of Skp2-p27 axis in tumor of BALB/c mouse xenografted with human HCT116 cells assessed as upregulation of p27 mRNA level at 5 to 10 m/kg, ip administered thrice a week for 3.5 weeks by RT-PCR method", "format": "functional, organism-based"}, "[8]": {"test_system": "HCT-116", "experiment": "Induction of morphological changes in human HCT116 cells assessed as appearance of shrunken cells at 4 to 20 uM by inverted phase-contrast microscopic method", "format": "functional, cell-based"}, "[9]": {"test_system": "HCT-116", "experiment": "Downregulation of DKK1 gene expression in human HCT116 cells assessed as fold change at 15 uM incubated for 24 hrs by cDNA microarray analysis relative to control", "format": "functional"}, "[10]": {"test_system": "HCT-116", "experiment": "Induction of morphological changes in human HCT116 cells assessed as appearance of pin-point shape cells at 4 to 20 uM by inverted phase-contrast microscopic method", "format": "functional, cell-based"}, "[11]": {"test_system": "Mus musculus", "experiment": "In vivo modulation of Skp2-p27 axis in tumor of BALB/c nude mouse xenografted with human HCT116 cells assessed as downregulation of Skp2 level at 5 to 10 m/kg, ip administered thrice a week for 3.5 weeks by Western blot analysis", "format": "functional, organism-based"}, "[12]": {"test_system": "HCT-116", "experiment": "Decrease in cell cycle associated protein expression in human HCT116 cells assessed as reduction in cyclin D1 expression at 5 to 20 uM after 24 hrs by Western blot analysis", "format": "functional, cell-based"}, "[13]": {"test_system": "HCT-116", "experiment": "Induction of cell cycle arrest in human HCT116 cells assessed as accumulation at S phase at 5 uM incubated for 24 hrs by propidium iodide staining based flow cytometry (reference value: 21.2%)", "format": "functional"}, "[14]": {"test_system": "HCT-116", "experiment": "Antiproliferative activity against human HCT116 cells after 72 hrs by sulforhodamine B assay", "format": "functional, cell-based"}, "[15]": {"test_system": "MDA-MB-231", "experiment": "Antiproliferative activity against human MDA-MB-231 cells after 72 hrs by sulforhodamine B assay", "format": "functional, cell-based", "conditions": "MDA-MB-231, 72 h"}, "[16]": {"test_system": "SNU-638", "experiment": "Antiproliferative activity against human SNU638 cells after 72 hrs by sulforhodamine B assay", "format": "functional, cell-based", "conditions": "SNU-638, 72 h"}, "[17]": {"test_system": "HCT-116", "experiment": "Induction of cell cycle arrest in human HCT116 cells assessed as accumulation at sub-G1 phase at 10 uM incubated for 24 hrs by propidium iodide staining based flow cytometry (reference value: 4.8%)", "format": "functional"}, "[18]": {"test_system": "HCT-116", "experiment": "Induction of apoptosis in human HCT116 cells assessed as reduction in Bid level at 5 to 20 uM after 24 hrs by Western blot analysis", "format": "functional, cell-based"}, "[19]": {"test_system": "HCT-116", "experiment": "Modulation of Skp2-p27 Axis in human HCT116 cells assessed as downregulation of Skp2 expression at 5 to 20 uM after 24 hrs by Western blot analysis", "format": "functional, cell-based"}, "[20]": {"test_system": "MRC5", "experiment": "Antiproliferative activity against human MRC5 cells after 72 hrs by sulforhodamine B assay", "format": "cell-based", "conditions": "MRC5, 72 h"}, "[21]": {"test_system": "HCT-116", "experiment": "Decrease in cell cycle associated protein expression in human HCT116 cells assessed as reduction in CDK4 expression at 5 to 20 uM after 24 hrs by Western blot analysis", "format": "functional, cell-based"}, "[22]": {"test_system": "HCT-116", "experiment": "Decrease in cell cycle associated protein expression in human HCT116 cells assessed as reduction in CDK6 expression at 5 to 20 uM after 24 hrs by Western blot analysis", "format": "functional, cell-based"}, "[23]": {"test_system": "HCT-116", "experiment": "Induction of cell cycle arrest in human HCT116 cells assessed as accumulation at G2/M phase at 10 uM incubated for 24 hrs by propidium iodide staining based flow cytometry (reference value: 15.7%)", "format": "functional"}, "[24]": {"test_system": "HCT-116", "experiment": "Effect on Cul1 expression in human HCT116 cells at 5 to 20 uM after 24 hrs by Western blot analysis", "format": "functional, cell-based"}, "[25]": {"test_system": "HCT-116", "experiment": "Downregulation of GINS2 gene expression in human HCT116 cells assessed as fold change at 15 uM incubated for 24 hrs by cDNA microarray analysis relative to control", "format": "functional"}, "[26]": {"test_system": "HCT-116", "experiment": "Downregulation of CCNE2 gene expression in human HCT116 cells assessed as fold change at 15 uM incubated for 24 hrs by cDNA microarray analysis relative to control", "format": "functional"}, "[27]": {"test_system": "HCT-116", "experiment": "Antitumor activity against human HCT116 cells xenografted in BALB/c nude mouse assessed as reduction in tumor volume at 5 to 10 mg/kg, ip administered thrice a week for 3.5 weeks and measured […] by caliper method", "format": "functional, organism-based"}, "[28]": {"test_system": "HCT-116", "experiment": "Induction of cell cycle arrest in human HCT116 cells assessed as accumulation at G0/G1 phase incubated for 18 hrs by propidium iodide staining based flow cytometry", "format": "functional"}, "[29]": {"test_system": "Mus musculus", "experiment": "In vivo modulation of MCM4 in tumor of BALB/c nude mouse xenografted with human HCT116 cells assessed as downregulation of MCM4 level at 5 to 10 m/kg, ip administered thrice a week for 3.5 weeks by Western blot analysis", "format": "functional, organism-based"}, "[30]": {"test_system": "HCT-116", "experiment": "Induction of cell cycle arrest in human HCT116 cells assessed as accumulation at sub-G1 phase at 20 uM incubated for 18 hrs by propidium iodide staining based flow cytometry (reference value: 0.9%)", "format": "functional"}, "[31]": {"test_system": "HCT-116", "experiment": "Induction of apoptosis in human HCT116 cells assessed as increase in cleaved caspase 8 level after 24 hrs by Western blot analysis", "format": "functional, cell-based"}, "[32]": {"test_system": "HCT-116", "experiment": "Decrease in cell cycle associated protein expression in human HCT116 cells assessed as reduction in CDK2 expression at 5 to 20 uM after 24 hrs by Western blot analysis", "format": "functional, cell-based"}, "[33]": {"test_system": "HCT-116", "experiment": "Induction of cell cycle arrest in human HCT116 cells assessed as accumulation at sub-G1 phase at 20 uM incubated for 24 hrs by propidium iodide staining based flow cytometry (reference value: 4.8%)", "format": "functional"}, "[34]": {"test_system": "HCT-116", "experiment": "Downregulation of HSPA1A gene expression in human HCT116 cells assessed as fold change at 15 uM incubated for 24 hrs by cDNA microarray analysis relative to control", "format": "functional"}, "[35]": {"test_system": "HCT-116", "experiment": "Downregulation of DSCC1 gene expression in human HCT116 cells assessed as fold change at 15 uM incubated for 24 hrs by cDNA microarray analysis relative to control", "format": "functional"}, "[36]": {"test_system": "HCT-116", "experiment": "Induction of cell cycle arrest in human HCT116 cells assessed as accumulation at S phase at 5 uM incubated for 18 hrs by propidium iodide staining based flow cytometry (reference value: 26.8%)", "format": "functional"}}, "note": "Activity calls are given as the source filed them. The rule behind the calls is not given here. *1 amine or outer side, *2 acyl side, *3 side chain or, on linkers, in order; H or OH if unused. Where a SMILES comes first, the peptide text is derived from it. Bridges are numbered along the chain shown (N, C = ends). [ ]: non-standard residue; d: D form. Phe(3R-OH) = O=C([C@@H](N[*:1])[C@H](O[*:3])c1ccccc1)[*:2]; NMeTrp(4-OMe) = CN[C@@H](Cc1c[nH]c2cccc(OC)c12)C(=O)O; NMeT = CN[C@H](C(=O)O)[C@@H](C)O; NMeL = CN[C@@H](CC(C)C)C(=O)O; NMeV = CN[C@H](C(=O)O)C(C)C"}
{"smiles": "CN[C@H](C(=O)N[C@H](C(=O)N[C@@H]1C(=O)N(C)[C@@H]([C@@H](C)O)C(=O)N[C@@H](C(C)C)C(=O)N(C)[C@@H](CC(C)C)C(=O)N[C@@H](C(C)C)C(=O)N(C)[C@@H](C(C)C)C(=O)N(C)[C@@H](Cc2c[nH]c3cccc(OC)c23)C(=O)N[C@@H](C(C)C)C(=O)N[C@@H]([C@H](O)c2ccccc2)C(=O)N[C@@H](C(C)C)C(=O)O[C@@H]1C)C(C)C)C(C)C", "note": "(H-[NMeV]VT[NMeT]V[NMeL]V[NMeV][NMeTrp(4-OMe)]V[Phe(3R-OH)]V; ester 3-C)", "values": [{"measurement": "inhibition", "setting": "[1]", "value": "Active"}, {"measurement": "fold change (FC)", "setting": "[2]", "value": 6.074}, {"measurement": "Activity", "setting": "[3]", "value": "inactive"}, {"measurement": "inhibition", "setting": "[4]", "value": "Dose-dependent effect"}, {"measurement": "Activity", "setting": "[5]", "value": 30.9, "unit": "%"}, {"measurement": "fold change (FC)", "setting": "[6]", "value": 4.917}, {"measurement": "Activity", "setting": "[7]", "value": "Active"}, {"measurement": "Activity", "setting": "[8]", "value": "Active"}, {"measurement": "fold change (FC)", "setting": "[9]", "value": 4.144}, {"measurement": "Activity", "setting": "[10]", "value": "Active"}, {"measurement": "inhibition", "setting": "[11]", "value": "Active"}, {"measurement": "inhibition", "setting": "[12]", "value": "Active"}, {"measurement": "Activity", "setting": "[13]", "value": 5.6, "unit": "%"}, {"measurement": "inhibition", "setting": "[14]", "value": "Dose-dependent effect"}, {"measurement": "IC50", "setting": "[14]; HCT-116, 72 h", "value": 7.61, "unit": "µM"}, {"measurement": "IC50", "setting": "[15]", "value": 9.89, "unit": "µM"}, {"measurement": "IC50", "setting": "[16]", "value": 9.38, "unit": "µM"}, {"measurement": "Activity", "setting": "[17]", "value": 14.7, "unit": "%"}, {"measurement": "Activity", "setting": "[18]", "value": "Active"}, {"measurement": "inhibition", "setting": "[19]", "value": "Active"}, {"measurement": "IC50", "setting": "[20]", "value": "> 50", "unit": "µM"}, {"measurement": "inhibition", "setting": "[21]", "value": "Active"}, {"measurement": "inhibition", "setting": "[22]", "value": "Active"}, {"measurement": "Activity", "setting": "[23]", "value": 16.1, "unit": "%"}, {"measurement": "Activity", "setting": "[24]", "value": "inactive"}, {"measurement": "fold change (FC)", "setting": "[25]", "value": 7.45}, {"measurement": "fold change (FC)", "setting": "[26]", "value": 4.613}, {"measurement": "Activity", "setting": "[27]", "value": "Active"}, {"measurement": "Activity", "setting": "[28]", "value": "Dose-dependent effect"}, {"measurement": "inhibition", "setting": "[29]", "value": "Active"}, {"measurement": "Activity", "setting": "[30]", "value": 7.1, "unit": "%"}, {"measurement": "Activity", "setting": "[31]", "value": "Dose-dependent effect"}, {"measurement": "inhibition", "setting": "[32]", "value": "Active"}, {"measurement": "Activity", "setting": "[33]", "value": 31.4, "unit": "%"}, {"measurement": "fold change (FC)", "setting": "[34]", "value": 4.43}, {"measurement": "fold change (FC)", "setting": "[35]", "value": 4.856}, {"measurement": "Activity", "setting": "[36]", "value": 27.5, "unit": "%"}]}
